{
  "source": "paper PMC5295395",
  "about": "“Inhibition of PlexA1-mediated brain tumor growth and tumor-associated angiogenesis using a transmembrane domain targeting peptide” (Oncotarget, 2016)",
  "format_in_all_cases": "cell-based, human",
  "key": {"VEGFR-2 phosphorylation": {"system": "VEGFR-2 phosphorylation", "assay": "ELISA of VEGFR-2 phosphorylation in HUVEC cells", "conditions": "VEGF 100 ng/ml", "protocol": "(C) Rac-1 activation assay in resting condition and after Sema3A-induced Rac-1 activation in U373 MG cells. (D) Western blot analysis of phosphorylated Akt, total Akt and tubulin in U373MG cells treated with the vehicle (LDS 72 μM), Sema3A (100 ng/ml) or Sema3A + MTP-PlexA1 (10^−7 M). The lower panel is showing the quantification of the p-Akt/Akt ratio in the different conditions. (E) MTP-PlexA1 decreases VEGFR-2 phosphorylation induced by VEGF (100 ng/ml) in HUVEC cells.\nPlexA1 is a Rho-GTPase activating protein. Consistently, it has been shown that in response to Sema3A, the Rho-GTPase Rac1 is activated and sequestered at the plasma membrane. […] Moreover, it has been shown that Sema3A inhibits Akt phosphorylation through binding of Rnd1 to PlexA1. […] From these experiments we concluded that MTP-PlexA1 is able to antagonize major signaling pathways of PlexA1 receptor."}, "NCH644 cells [1]": {"system": "NCH644 cells", "assay": "MTS proliferation assay, NCH644 glioma stem cells", "conditions": "NCH644, p < 0.0001"}, "NCH644 cells [2]": {"system": "NCH644 cells", "assay": "sphere forming assay, NCH644 glioma stem cells", "conditions": "NCH644, 10^−9 M", "protocol": "Mounting evidence supports a crucial role of cancer stem cells in the initiation or relapse of tumors. This is particularly the case for gliomas. Thus, we decided to evaluate to what extent MTP-PlexA1 would affect glioma stem cell (GSC) growth. To this end, we used the NCH644 human cell line derived from a patient biopsy. […] We next performed a sphere forming assay in which cells were plated into 96-well plates at a low density (30 cells per well) to monitor production of clones from individual cells growing as non-adherent gliomaspheres. A minimum of 30 cells per well was required to allow sufficient sphere production (composed of at least 8 cells) in a time frame compatible with drug testing. Visual control of sphere formation on a daily basis confirmed that cellular edifices were arising from single cells and not due to cell clumping. […] To address whether this inhibitory effect is sufficient to impede tumor development in vivo we performed a xenograft experiment. […]\nCells were stained with an orange fluorescent dye (CMRA orange, Molecular Probe) to facilitate monitoring of individual cell and sphere counting. […] The sphere forming rate was calculated by dividing the number of sphere at day 4 per the real number of cells at day one in a given well."}},
  "data": [
    {"sequence": "TLPAIVGIGGGGGLLLLVIVAVLIAYKRK [MTP-PlexA1, synthetic transmembrane peptide mimicking the TMD of PlexA1]", "values": [
      {"measurement": "change of VEGF-induced phosphorylation of VEGFR-2", "setting": "VEGFR-2 phosphorylation", "value": "−26", "unit": "%"},
      {"measurement": "change of proliferation of glioma stem cells", "setting": "NCH644 cells [1]", "value": "−10", "unit": "%"},
      {"measurement": "decrease of sphere forming ability", "setting": "NCH644 cells [2]; 4 days, 30 cells per well, p = 0.0015, Student T test", "value": 33.3, "unit": "%"},
      {"measurement": "sphere formation relative to vehicle", "setting": "NCH644 cells [2]; vehicle = 100% +/− 9.7%", "value": 66.7, "unit": "% +/− 5.2"}
    ]}
  ]
}
